ChEMBL document CHEMBL3885861, “Open TG-GATES”

Species: Rattus norvegicus
Assay: Open TG-GATES - Regimen: Daily Repeat
Format: toxicity, organism-based, Sprague-Dawley
Set-up: regimen Daily Repeat, gender Male, age 6 weeks
Conditions: in vivo, po, 100 mg/kg, route gavage, dose level Middle; for APTT / Bas / Eos / Fbg / Hb / Ht / Lym / MCH / MCHC / MCV / Mono / Neu / PT / Plat / RBC / Ret / WBC: tissue Blood; for KIDNEY_L / KIDNEY_R / KIDNEY_TOTAL: tissue Kidney; for LIVER: tissue Liver; for A/G / ALP / ALT / AST / BUN / CRE / Ca / Cl / DBIL / GLC / IP / K / LDH / Na / PL / RALB / TBIL / TC / TG / TP / gamma-GTP: tissue Plasma

SMILES: Clc1c(Cl)c(Cl)c(Cl)c(Cl)c1Cl [PERCHLOROBENZENE]
- TERMINAL_BW (72 h, time 3 day): 223.3 g
- APTT (72 h, time 3 day): 15.9 s
- Bas (72 h, time 3 day): 0%
- Eos (72 h, time 3 day): 1.2%
- Fbg (72 h, time 3 day): 221.4 mg/dL
- Hb (72 h, time 3 day): 14.1 g/dL
- Ht (72 h, time 3 day): 42.1%
- Lym (72 h, time 3 day): 73.2%
- MCH (72 h, time 3 day): 21.7 pg
- MCHC (72 h, time 3 day): 33.5%
- MCV (72 h, time 3 day): 64.8 fL
- Mono (72 h, time 3 day): 7.4%
- Neu (72 h, time 3 day): 18.2%
- PT (72 h, time 3 day): 11.2 s
- Plat (72 h, time 3 day): 104.2 x10_4/uL
- RBC (72 h, time 3 day): 650.6 x10_4/ul
- Ret (72 h, time 3 day): 7.5%
- WBC (72 h, time 3 day): 113.8 x10_2/uL
- KIDNEY_L (72 h, time 3 day): 1 g
- KIDNEY_R (72 h, time 3 day): 1 g
- KIDNEY_TOTAL (72 h, time 3 day): 2 g
- LIVER (72 h, time 3 day): 13.1 g
- A/G (72 h, time 3 day): 1.8
- ALP (72 h, time 3 day): 823 IU/L
- ALT (72 h, time 3 day): 43.4 IU/L
- AST (72 h, time 3 day): 65.8 IU/L
- BUN (72 h, time 3 day): 16 mg/dL
- CRE (72 h, time 3 day): 0.5 mg/dL
- Ca (72 h, time 3 day): 10.6 mg/dL
- Cl (72 h, time 3 day): 106.2 meq/L
- DBIL (72 h, time 3 day): 0.006 mg/dL
- GLC (72 h, time 3 day): 194.8 mg/dL
- IP (72 h, time 3 day): 8.7 mg/dL
- K (72 h, time 3 day): 5.2 meq/L
- LDH (72 h, time 3 day): 121.4 IU/L
- Na (72 h, time 3 day): 139 meq/L
- PL (72 h, time 3 day): 168 mg/dL
- RALB (72 h, time 3 day): 3.7 g/dL
- TBIL (72 h, time 3 day): 0.4 mg/dL
- TC (72 h, time 3 day): 91.8 mg/dL
- TG (72 h, time 3 day): 162.4 mg/dL
- TP (72 h, time 3 day): 5.8 g/dL
- gamma-GTP (72 h, time 3 day): 1.6 IU/L
- TERMINAL_BW ([…], time 7 day): 265.6 g
- TERMINAL_BW ([…], time 14 day): 308.5 g
- TERMINAL_BW ([…], time 28 day): 338.7 g
- APTT ([…], time 7 day): 17.2 s
- Bas ([…], time 7 day): 0%
- Eos ([…], time 7 day): 1.2%
- Fbg ([…], time 7 day): 238.8 mg/dL
- Hb ([…], time 7 day): 14.5 g/dL
- Ht ([…], time 7 day): 43.3%
- Lym ([…], time 7 day): 64.2%
- MCH ([…], time 7 day): 21.3 pg
- MCHC ([…], time 7 day): 33.4%
- MCV ([…], time 7 day): 63.7 fL
- Mono ([…], time 7 day): 14.4%
- Neu ([…], time 7 day): 20.4%
- PT ([…], time 7 day): 11.7 s
- Plat ([…], time 7 day): 115.6 x10_4/uL
- RBC ([…], time 7 day): 680.8 x10_4/ul
- Ret ([…], time 7 day): 5.7%
- WBC ([…], time 7 day): 104 x10_2/uL
- APTT ([…], time 14 day): 19.7 s
- Bas ([…], time 14 day): 0%
- Eos ([…], time 14 day): 1%
- Fbg ([…], time 14 day): 263.2 mg/dL
- Hb ([…], time 14 day): 14.5 g/dL
- Ht ([…], time 14 day): 43.3%
- Lym ([…], time 14 day): 77.6%
- MCH ([…], time 14 day): 20.9 pg
- MCHC ([…], time 14 day): 33.6%
- MCV ([…], time 14 day): 62.3 fL
- Mono ([…], time 14 day): 8%
- Neu ([…], time 14 day): 13.6%
- PT ([…], time 14 day): 12.2 s
- Plat ([…], time 14 day): 117.2 x10_4/uL
- RBC ([…], time 14 day): 695 x10_4/ul
- Ret ([…], time 14 day): 4.6%
- WBC ([…], time 14 day): 156.2 x10_2/uL
- APTT ([…], time 28 day): 23.8 s
- Bas ([…], time 28 day): 0%
- Eos ([…], time 28 day): 2.2%
- Fbg ([…], time 28 day): 320.6 mg/dL
- Hb ([…], time 28 day): 15.3 g/dL
- Ht ([…], time 28 day): 46%
- Lym ([…], time 28 day): 65%
- MCH ([…], time 28 day): 19.7 pg
- MCHC ([…], time 28 day): 33.2%
- MCV ([…], time 28 day): 59.4 fL
- Mono ([…], time 28 day): 15.4%
- Neu ([…], time 28 day): 17.8%
- PT ([…], time 28 day): 15.8 s
- Plat ([…], time 28 day): 100.2 x10_4/uL
- RBC ([…], time 28 day): 774.8 x10_4/ul
- Ret ([…], time 28 day): 3%
- WBC ([…], time 28 day): 182.8 x10_2/uL
- KIDNEY_L ([…], time 7 day): 1.2 g
- KIDNEY_R ([…], time 7 day): 1.2 g
- KIDNEY_TOTAL ([…], time 7 day): 2.3 g
- KIDNEY_L ([…], time 14 day): 1.3 g
- KIDNEY_R ([…], time 14 day): 1.3 g
- KIDNEY_TOTAL ([…], time 14 day): 2.5 g
- KIDNEY_L ([…], time 28 day): 1.5 g
- KIDNEY_R ([…], time 28 day): 1.5 g
- KIDNEY_TOTAL ([…], time 28 day): 2.9 g
- LIVER ([…], time 7 day): 17.2 g
- LIVER ([…], time 14 day): 21.6 g
- LIVER ([…], time 28 day): 29.5 g
- A/G ([…], time 7 day): 1.9
- ALP ([…], time 7 day): 631.4 IU/L
- ALT ([…], time 7 day): 33 IU/L
- AST ([…], time 7 day): 59.2 IU/L
- BUN ([…], time 7 day): 17.2 mg/dL
- CRE ([…], time 7 day): 0.7 mg/dL
- Ca ([…], time 7 day): 10.7 mg/dL
- Cl ([…], time 7 day): 104.2 meq/L
- DBIL ([…], time 7 day): 0.01 mg/dL
- GLC ([…], time 7 day): 179.8 mg/dL
- IP ([…], time 7 day): 7.9 mg/dL
- K ([…], time 7 day): 4.9 meq/L
- LDH ([…], time 7 day): 127.8 IU/L
- Na ([…], time 7 day): 137.8 meq/L
- PL ([…], time 7 day): 191.6 mg/dL
- RALB ([…], time 7 day): 3.9 g/dL
- TBIL ([…], time 7 day): 0.5 mg/dL
- TC ([…], time 7 day): 112.4 mg/dL
- TG ([…], time 7 day): 151.6 mg/dL
- TP ([…], time 7 day): 6.1 g/dL
- gamma-GTP ([…], time 7 day): 1.8 IU/L
- A/G ([…], time 14 day): 2
- ALP ([…], time 14 day): 470.8 IU/L
- ALT ([…], time 14 day): 30.2 IU/L
- AST ([…], time 14 day): 54.2 IU/L
- BUN ([…], time 14 day): 17 mg/dL
- CRE ([…], time 14 day): 0.6 mg/dL
- Ca ([…], time 14 day): 10.4 mg/dL
- Cl ([…], time 14 day): 106.6 meq/L
- DBIL ([…], time 14 day): 0.014 mg/dL
- GLC ([…], time 14 day): 171.2 mg/dL
- IP ([…], time 14 day): 7.8 mg/dL
- K ([…], time 14 day): 4.9 meq/L
- LDH ([…], time 14 day): 102.2 IU/L
- Na ([…], time 14 day): 140.2 meq/L
- PL ([…], time 14 day): 192.6 mg/dL
- RALB ([…], time 14 day): 4.4 g/dL
- TBIL ([…], time 14 day): 0.5 mg/dL
- TC ([…], time 14 day): 115.2 mg/dL
- TG ([…], time 14 day): 145.2 mg/dL
- TP ([…], time 14 day): 6.6 g/dL
- gamma-GTP ([…], time 14 day): 2.8 IU/L
- A/G ([…], time 28 day): 1.6
- ALP ([…], time 28 day): 316.6 IU/L
- ALT ([…], time 28 day): 50.4 IU/L
- AST ([…], time 28 day): 48.8 IU/L
- BUN ([…], time 28 day): 21.8 mg/dL
- CRE ([…], time 28 day): 0.7 mg/dL
- Ca ([…], time 28 day): 11.2 mg/dL
- Cl ([…], time 28 day): 105.6 meq/L
- DBIL ([…], time 28 day): 0.014 mg/dL
- GLC ([…], time 28 day): 159.6 mg/dL
- IP ([…], time 28 day): 9.2 mg/dL
- K ([…], time 28 day): 5.3 meq/L
- LDH ([…], time 28 day): 157.4 IU/L
- Na ([…], time 28 day): 143.4 meq/L
- PL ([…], time 28 day): 193 mg/dL
- RALB ([…], time 28 day): 4.6 g/dL
- TBIL ([…], time 28 day): 0.3 mg/dL
- TC ([…], time 28 day): 120.2 mg/dL
- TG ([…], time 28 day): 116.2 mg/dL
- TP ([…], time 28 day): 7.6 g/dL
- gamma-GTP ([…], time 28 day): 11.4 IU/L
